Laboratory results as given in ChEMBL document CHEMBL4402534, “Dihydroorotate dehydrogenase inhibitors in anti-infective drug research” (Eur J Med Chem, 2019).
Values after ≈ are worked out from the molar mass of the structure shown.

Key:
[1] = Inhibition of Plasmodium falciparum DHODH
[2] = Inhibition of Helicobacter pylori DHODH
Helicobacter pylori = assay: Antibacterial activity against Helicobacter pylori by whole cell-based assay; format: functional
[3] = biological target: T1, Dihydroorotate dehydrogenase (quinone), mitochondrial (Homo sapiens, UniProt Q02127); assay: Inhibition of human DHODH
T1 sequence (Q02127 whole entry): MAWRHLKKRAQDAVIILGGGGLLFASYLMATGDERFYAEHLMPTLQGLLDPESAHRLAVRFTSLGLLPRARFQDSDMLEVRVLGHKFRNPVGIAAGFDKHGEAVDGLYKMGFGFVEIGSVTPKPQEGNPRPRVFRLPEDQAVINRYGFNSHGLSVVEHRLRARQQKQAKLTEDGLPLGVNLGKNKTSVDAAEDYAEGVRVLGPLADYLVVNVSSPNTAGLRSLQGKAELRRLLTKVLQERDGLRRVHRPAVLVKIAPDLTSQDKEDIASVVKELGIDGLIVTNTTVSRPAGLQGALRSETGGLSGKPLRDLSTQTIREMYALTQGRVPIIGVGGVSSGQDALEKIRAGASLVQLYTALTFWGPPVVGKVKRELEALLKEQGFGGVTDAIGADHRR

Dengue virus [4] = assay: Antiviral activity against Dengue virus assessed as reduction in virus replication; format: functional, organism-based
[5] = biological target: T1, Dihydroorotate dehydrogenase (quinone), mitochondrial; assay: Inhibition of DHODH (unknown origin)
[6] = Inhibition of Enterococcus faecalis DHODH
[7] = Inhibition of Escherichia coli DHODH
Dengue virus [8] = assay: Antiviral activity against Dengue virus infected in human A549 cells assessed as reduction in virus replication; format: functional, organism-based
West Nile virus = assay: Antiviral activity against West Nile virus infected in human A549 cells assessed as reduction in virus replication; format: functional, organism-based
[9] = Inhibition of Babesia bovis DHODH
Yellow fever virus = assay: Antiviral activity against Yellow fever virus infected in human A549 cells assessed as reduction in virus replication; format: functional, organism-based
[10] = test system: Vesicular stomatitis virus; assay: Antiviral activity against Vesicular stomatitis virus infected in human A549 cells assessed as reduction in virus replication; format: functional, organism-based
[11] = test system: Western equine encephalitis virus; assay: Antiviral activity against Western equine encephalomyelitis virus infected in human A549 cells assessed as reduction in virus replication; format: functional, organism-based
[12] = Inhibition of Aspergillus fumigatus DHODH
Cytomegalovirus = assay: Antiviral activity against Cytomegalovirus; format: functional, organism-based; conditions: Human betaherpesvirus 5
Human alphaherpesvirus 2 = assay: Antiviral activity against Herpes simplex viruses type 2; format: functional, organism-based
Human alphaherpesvirus 1 = assay: Antiviral activity against Herpes simplex viruses type 1; format: functional, organism-based
[13] = Antiviral activity against Human herpesvirus 6 type A; format: functional, Human herpesvirus 6A
Human alphaherpesvirus 3 = assay: Antiviral activity against Varicella zoster virus; format: functional, organism-based
[14] = Selectivity index, ratio of IC50 for human DHODH to IC50 for Schistosoma mansoni DHODH

SMILES: Cc1nc2cc(OC(F)(F)F)ccc2n1-c1ccc(C(=O)NC2CC2)s1
- IC50 [1]: 220 nM

SMILES: O=C(NCc1cccnc1)c1cc(C(=O)Nc2ccccc2)n(-c2ccc(Cl)cc2)n1
- Ki [2]: 4 nM
- MIC (Helicobacter pylori): 0.25 µg/mL (≈ 0.579 µM)

SMILES: O=C(N[C@@H]1CCCc2c1[nH]c1ccc(Cl)cc21)c1ccccn1
- Ki [3]: 203 nM
- IC50 (Dengue virus [4]): 13.3 nM

SMILES: Cc1[nH]c2ccc(-c3nnc(SCC(=O)N4CCCC4)o3)cc2c1C
- IC50 [5]: 1130 nM

SMILES: O=C(NCc1ccccc1)c1cc(C(=O)Nc2ccccc2)n(-c2ccc(Cl)cc2)n1
- Ki [2]: 4 nM
- MIC (Helicobacter pylori): 0.125 µg/mL (≈ 0.29 µM)

SMILES: O=c1sn(-c2ccccc2)c(=O)n1-c1ccc(F)cc1
- IC50 [3]: > 100000 nM
- IC50 [6]: 75 nM
- IC50 [7]: 840 nM

SMILES: Cc1cc(Nc2ccc(S(F)(F)(F)(F)F)cc2)n2ncnc2n1
- IC50 [1]: 130 nM

SMILES: CCCCCCCCc1[nH]c2ccccc2c(=O)c1C
- IC50 [2]: 4550 nM

SMILES: Cc1c(-c2ccc(-c3ccccc3F)cc2)nc2ccc(F)cc2c1C(=O)O [BREQUINAR]
- EC50 (Dengue virus [8]): 78 nM
- EC50 (West Nile virus): 78 nM
- IC50 [9]: 52400 nM
- EC50 (Yellow fever virus): 78 nM
- EC50 [10]: 78 nM
- EC50 [11]: 78 nM

SMILES: Cc1cc(-c2ccccc2)c(C(=O)C(=O)Nc2ccc(N3CCN(c4ncc(F)cn4)CC3)cc2)n1C [OLOROFIM]
- IC50 [3]: > 100000 nM
- IC50 [12]: 44 nM

SMILES: C[C@H](c1ccc(-c2ccccc2)cc1)N(C)C(=O)CSc1nnnn1-c1ccc(O)cc1
- IC50 [5]: 41000 nM

SMILES: COC(=O)c1c(-c2c(Cl)cccc2Cl)noc1-c1cnn(-c2cccc(Cl)c2)c1C(F)(F)F
- EC50 (Dengue virus [8]): 2.4 nM
- IC50 [3]: 103 nM
- EC50 (West Nile virus): 2.4 nM
- EC50 (Yellow fever virus): 2.4 nM
- EC50 [10]: 2.4 nM
- EC50 [11]: 2.4 nM

SMILES: COc1ccc(-n2nc(C(=O)NCc3ccccc3)cc2C(=O)Nc2ccc(C(=O)N3CCCC3)cc2)cc1
- Ki [2]: 26 nM
- MIC (Helicobacter pylori): 3 µg/mL (≈ 5.73 µM)

SMILES: COc1ccc(-n2nc(C(=O)Nc3ccccc3O)cc2C(=O)Nc2ccc(C(=O)N3CCCC3)cc2)cc1
- Ki [2]: 50 nM

SMILES: Cc1nc2c(C#N)cccc2n1-c1ccc(C(=O)NC2CC2)s1
- IC50 [1]: 50 nM

SMILES: CSC(=NCn1c(C/C=C(\C)CCC=C(C)C)c(C)c(=O)c2ccccc21)SC
- IC50 [2]: 11100 nM

SMILES: O=C(Nc1c(F)c(F)c(-c2cccc(OC(F)(F)F)c2)c(F)c1F)c1ccsc1C(=O)O [KIO-100]
- IC50 (Cytomegalovirus): 1500 nM
- IC50 (Human alphaherpesvirus 2): > 10000 nM
- IC50 (Human alphaherpesvirus 1): > 10000 nM
- IC50 [13]: 1.55 nM
- IC50 (Human alphaherpesvirus 3): 3.55 nM

SMILES: Cc1nc2c(OC(F)F)cccc2n1-c1ccc(C(=O)NC2CC2)s1
- IC50 [1]: 220 nM

SMILES: O=C1C(O)=C([C@H]2CC[C@H](c3ccc(Cl)cc3)CC2)C(=O)c2ccccc21 [ATOVAQUONE]
- IC50 [3]: 2600 nM
- Ratio IC50 [14]: 6
- IC50 [9]: 2.38 nM

SMILES: Cc1oncc1C(=O)Nc1ccc(C(F)(F)F)cc1 [LEFLUNOMIDE]
- IC50 [9]: 52400 nM
